Experimental data: BindingDB's records for doi:10.1016/j.bmcl.2019.05.013 (Daiichi Sankyo, 2019)

Each compound was assayed against T1, Solute carrier family 2, facilitated glucose transporter member 4 (Rattus norvegicus, UniProt P19357) (assay: Induction of GLUT4 translocation in rat L6-GLUT4myc differentiated myotube cells after 20 mins by chemiluminescent method).
T1 sequence (P19357 whole entry): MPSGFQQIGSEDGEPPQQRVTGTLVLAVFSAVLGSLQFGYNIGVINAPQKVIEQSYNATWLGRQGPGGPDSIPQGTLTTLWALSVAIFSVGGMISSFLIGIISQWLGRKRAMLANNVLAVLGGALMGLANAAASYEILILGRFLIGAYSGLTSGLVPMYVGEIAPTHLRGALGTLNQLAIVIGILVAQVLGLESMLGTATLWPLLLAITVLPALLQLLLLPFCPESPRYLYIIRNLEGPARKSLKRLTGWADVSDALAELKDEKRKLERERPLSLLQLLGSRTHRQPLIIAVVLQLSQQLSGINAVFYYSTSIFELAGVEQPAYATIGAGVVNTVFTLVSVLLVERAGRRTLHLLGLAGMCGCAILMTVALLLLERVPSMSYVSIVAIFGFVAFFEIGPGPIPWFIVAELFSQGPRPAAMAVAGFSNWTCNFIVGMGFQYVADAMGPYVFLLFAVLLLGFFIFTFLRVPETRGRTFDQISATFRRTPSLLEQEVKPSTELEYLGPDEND

Row | EC50 [nM] | Compound
1 | 47 | CC(C)(C)OC(=O)NCCCCOc1ccccc1-c1nnc(Nc2ccc(CC(N)=O)cc2F)c2ccsc12
2 | 230 | CCOC(=O)NCCCCOc1ccccc1-c1nnc(Nc2ccc(CC(N)=O)cc2F)c2ccsc12
3 | 230 | COCCOCCOc1ccccc1-c1nnc(Nc2ccc(CC(N)=O)cc2F)c2ccsc12
4 | 24 | CC(C)(C)OC(=O)NCCOCCOc1ccccc1-c1nnc(Nc2ccc(CC(N)=O)cc2F)c2ccsc12
5 | 140 | COCCOc1ccccc1-c1nnc(Nc2ccc(CC(N)=O)cc2F)c2ccsc12
6 | 120 | CC(C)(C)NC(=O)NCCOCCOc1ccccc1-c1nnc(Nc2ccc(CC(N)=O)cc2F)c2ccsc12

The remaining lines, values behind:

Row | Compound | EC50 [nM]
7 | COc1ccccc1-c1nnc(Nc2ccc(CC(N)=O)cc2)c2c1CCC2 | 4700
8 | NC(=O)Cc1ccc(Nc2nnc(-c3ccccc3OCc3cscn3)c3sccc23)c(F)c1 | 110
9 | COc1ccccc1-c1nnc(Nc2ccc(CC(N)=O)cc2F)c2ccsc12 | 650
10 | NC(=O)Cc1ccc(Nc2nnc(-c3ccccc3OCc3ccccn3)c3sccc23)c(F)c1 | 140
11 | NC(=O)Cc1ccc(Nc2nnc(-c3ccccc3OCC3COCCO3)c3sccc23)c(F)c1 (stereo unspecified) | 76
